Measured values as given in paper PMC3304000 (Bioorganic & medicinal chemistry, 2012).
Converted amounts (≈) assume the structure as drawn. “And” between values parts separate entries of the source, which are not always exact repeats. Equal values may be shown once.

Tests used:
Assay in all cases: microbe, parasite or virus in culture
Type in all cases: cell-based
Settings in all cases: Mycobacterium tuberculosis
[1] = tested on: MDR-TB resistant to HREZSKP
[2] = tested on: MDR-TB resistant to HREKP
[3] = tested on: MDR-TB resistant to HRERb
[4] = tested on: XDR-TB resistant to HRESKO
[5] = tested on: XDR-TB resistant to HREKO
[6] = MDR-TB resistant to HRERb (isoniazid, rifampin, ethambutol, rifabutin)
[7] = MDR-TB resistant to HRERb, value in parentheses

`O=[N+]([O-])c1cn2c(n1)OC[C@@H](OCc1ccc(OC(F)(F)F)cc1)C2` [PA-824, reference compound] was tested, and the MIC [1] was 0.45 µM to 0.86 µM and 0.16 µg/mL to 0.31 µg/mL, the MIC [2] was 0.45 µM to 0.86 µM and 0.16 µg/mL to 0.31 µg/mL and the MIC [3, 6] was 0.45 to 0.86 µM. The MIC [3, 7] was 0.16 to 0.31 µg/mL, the MIC [4] was 0.31 µg/mL (≈ 0.863 µM) and the MIC [5] was 0.08 µg/mL (≈ 0.223 µM).

`O=C(OCc1ccccc1)c1coc(-c2ccccc2)n1` [Compound 2] was tested, and the MIC [1] was 2.5 µg/mL (≈ 8.95 µM), the MIC [2] was 0.3 µg/mL (≈ 1.07 µM) and the MIC [3, 7] was 2.5 µg/mL. The MIC [4] was 1.25 µg/mL (≈ 4.48 µM) and the MIC [5] was 2.5 µg/mL (≈ 8.95 µM).

For `Cc1ccn2c(C(=O)OCc3ccccc3)c(C)nc2c1` [Compound 11, benzyl 2,7-dimethylimidazo[1,2-a]pyridine-3-carboxylate], the MIC [1] was under 0.01 µg/mL, the MIC [2] was under 0.01 µg/mL and the MIC [3, 6] was 0.6 µM. It also gave an MIC [3, 7] of 0.16 µg/mL, an MIC [4] of under 0.01 µg/mL and an MIC [5] of under 0.01 µg/mL.

In the case of `O=C(OCc1ccccc1)c1csc(-c2ccccc2)n1` [Compound 5], the MIC [1] is reported as 10 µg/mL (≈ 33.9 µM), the MIC [2] is reported as 1.25 µg/mL (≈ 4.23 µM) and the MIC [3, 7] is reported as 10 µg/mL. For the same molecule, the MIC [4] was 5 µg/mL (≈ 16.9 µM) and the MIC [5] was 5 µg/mL (≈ 16.9 µM).
